Test results from patent US20260092074A1, “Annelated Pyridines as Steroidogenesis Inhibitors, Preparation Method and Use Thereof” (Guangzhou Vinnocent Pharmaceutical Limited, priority 2022, published 2026).

Columns and labels:
[1] = target: T1, human CYP11B1 (Homo sapiens, UniProt P15538); experiment: Inhibition of hCYP11B1 in transfected V79 cells; assay type: cell-based; details: hamster V79 cells expressing human CYP11B1; substrate 11-deoxycortisol 200 nM
T1 construct: expressed in transfected cells
T1 sequence (P15538 25-503): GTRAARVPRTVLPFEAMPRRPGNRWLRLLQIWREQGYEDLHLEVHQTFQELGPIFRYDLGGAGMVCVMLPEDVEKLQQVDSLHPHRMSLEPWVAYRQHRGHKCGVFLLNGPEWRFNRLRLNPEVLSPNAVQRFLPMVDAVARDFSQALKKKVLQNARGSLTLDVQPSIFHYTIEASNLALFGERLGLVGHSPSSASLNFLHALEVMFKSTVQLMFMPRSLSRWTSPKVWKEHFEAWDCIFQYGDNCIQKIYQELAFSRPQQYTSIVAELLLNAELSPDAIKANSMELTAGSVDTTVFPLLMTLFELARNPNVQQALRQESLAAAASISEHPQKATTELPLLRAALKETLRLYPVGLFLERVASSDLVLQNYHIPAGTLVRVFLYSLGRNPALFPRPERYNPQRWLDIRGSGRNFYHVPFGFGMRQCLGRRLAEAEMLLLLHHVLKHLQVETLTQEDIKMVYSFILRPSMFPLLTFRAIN
In short: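 V79 hamster cells stably expressing human CYP11B1 and rat NADPH-P450 reductase were preincubated with compounds for 2 h. 11-Deoxycortisol (200 nM) was then added as substrate for 30 min before ethyl acetate quench. Substrate and product were quantified by LC-MS/MS or HPLC at 260 nm, and IC50 was derived from percent inhibition.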

[2] = target: T2, human CYP11B2 (Homo sapiens, UniProt P19099); experiment: Inhibition of hCYP11B2 in transfected V79 cells; assay type: cell-based; details: hamster V79 cells expressing human CYP11B2; substrate 11-deoxycorticosterone 200 nM
T2 construct: expressed in transfected cells
T2 sequence (P19099 25-503): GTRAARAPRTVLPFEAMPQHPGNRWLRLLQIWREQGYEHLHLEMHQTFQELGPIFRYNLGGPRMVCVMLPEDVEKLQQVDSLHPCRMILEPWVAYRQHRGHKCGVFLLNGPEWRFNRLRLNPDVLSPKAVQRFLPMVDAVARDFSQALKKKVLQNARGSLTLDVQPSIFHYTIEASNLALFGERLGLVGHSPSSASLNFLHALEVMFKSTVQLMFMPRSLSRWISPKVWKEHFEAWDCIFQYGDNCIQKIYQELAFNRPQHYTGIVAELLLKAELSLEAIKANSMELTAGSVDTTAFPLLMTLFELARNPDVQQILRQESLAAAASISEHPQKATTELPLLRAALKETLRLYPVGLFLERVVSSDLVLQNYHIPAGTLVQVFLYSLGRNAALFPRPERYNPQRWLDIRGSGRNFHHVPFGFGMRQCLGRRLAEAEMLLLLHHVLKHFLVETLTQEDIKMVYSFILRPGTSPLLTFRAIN
In short: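 Hamster V79 cells stably co-expressing human CYP11B2 and rat NADPH-P450 reductase were pre-incubated with compounds for 2 hours, then given 200 nM 11-deoxycorticosterone for 30 minutes before ethyl acetate quench. Substrate and product were quantified by LC-MS/MS or HPLC at 260 nm, and IC50 was derived from percent inhibition.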

Row | Compound | IC50 [1] [nM] | IC50 [2] [nM]
1 | CN1CCN(S(=O)(=O)c2ccc(C#N)cc2)c2cncc(-c3ccc(C#N)cc3)c21 [N4, 4-((8-(4-Cyanophenyl)-1-methyl-2,3-dihydropyrido[3,4-b]pyrazin-4 (1H)-yl)sulfonyl)benzonitrile] | 5.2 | 0.6
2 | N#Cc1ccc(S(=O)(=O)N2CCOc3c(-c4ccc5ncoc5c4)cncc32)cc1 [O131, 4-((8-(Benzo[d]oxazol-6-yl)-2,3-dihydro-4H-pyrido[4,3-b][1,4]oxazin-4-yl)sulfonyl)benzonitrile] | 248 | 3.3
3 | N#Cc1ccc(-c2cncc3c2SCCN3S(=O)(=O)C2CN(S(=O)(=O)c3cccc(C#N)c3)C2)cc1 [S77, 3-((3-((8-(4-Cyanophenyl)-2,3-dihydro-4H-pyrido[4,3-b][1,4]thiazin-4-yl)sulfonyl)azetidin-1-yl)sulfonyl)benzonitrile] | 32 | 0.8
4 | N#Cc1ccc(-c2cncc3ncn(C4CC4)c23)cc1 [N7, 4-(1-Cyclopropyl-1H-imidazo[4,5-c]pyridin-7-yl)benzonitrile] | 453 | 679
5 | CC(=O)N1CCc2cc(S(=O)(=O)N3CCSc4c(-c5cc6cc(Cl)ccc6o5)cncc43)ccc21 [S58, 1-(5-((8-(5-Chlorobenzofuran-2-yl)-2,3-dihydro-4H-pyrido[4,3-b][1,4]thiazin-4-yl)sulfonyl)indolin-1-yl)ethan-1-one] | 27 | 2
6 | Cc1ccccc1C(=O)N1CCc2c(-c3ccc(C#N)cc3)cncc21 [C36, 4-(1-(2-Methylbenzoyl)-2,3-dihydro-1H-pyrrolo[2,3-c]pyridin-4-yl)benzonitrile] | 297 | 28
7 | N#Cc1ccc(C(=O)N2CCSc3c(-c4ccc(C#N)cc4)cncc32)cc1 [S94, 4-(4-(4-Cyanobenzoyl)-3,4-dihydro-2H-pyrido[4,3-b][1,4]thiazin-8-yl)benzonitrile] | 2660 | 38
8 | N#CN1CC2(CC(S(=O)(=O)N3CCSc4c(-c5cc6cc(Cl)ccc6o5)cncc43)C2)C1 [S67, 6-((8-(5-chlorobenzofuran-2-yl)-2,3-dihydro-4H-pyrido[4,3-b][1,4]thiazin-4-yl)sulfonyl)-2-azaspiro[3.3]heptane-2-carbonitrile] | 603 | 3.2
9 | COc1ccc(S(=O)(=O)N2CCSc3c(-c4ccc(Cl)cc4)cncc32)cc1 [S28, 8-(4-Chlorophenyl)-4-((4-methoxyphenyl)sulfonyl)-3,4-dihydro-2H-pyrido[4,3-b][1,4]thia zine] | 1.8 | 0.2
10 | N#Cc1ccc(-c2cncc3c2OCCN3C(=O)c2ccc(Oc3ccc(F)cc3)s2)cc1 [O72, 4-(4-(5-(4-Fluorophenoxy)thiophene-2-carbonyl)-3,4-dihydro-2H-pyrido[4,3-b][1,4]oxazin-8-yl)benzonitrile] | 292 | 3.6
11 | N#Cc1ccc(-c2cncc3c2OCCN3S(=O)(=O)c2cccnc2)cc1 [O13, 4-(4-(Pyridin-3-ylsulfonyl)-3,4-dihydro-2H-pyrido[4,3-b][1,4]oxazin-8-yl)benzonitrile] | 0.31 | 0.48
12 | N#Cc1ccc(-c2cncc3c2OCCN3C(=O)C2CN(Cc3ccc(F)cc3)C2)cc1 [O79, 4-(4-(1-(4-Fluorobenzyl)azetidine-3-carbonyl)-3,4-dihydro-2H-pyrido[4,3-b][1,4]oxazin-8-yl)benzonitrile] | 137 | 2.9
13 | N#Cc1ccc(-c2cncc3c2CCN3C(=O)c2ccccc2F)cc1 [C31, 4-(1-(2-Fluorobenzoyl)-2,3-dihydro-1H-pyrrolo[2,3-c]pyridin-4-yl)benzonitrile] | 305 | 4.6
14 | O=S(=O)(N1CCn2cnnc2C1)N1CCSc2c(-c3cc4cc(Cl)ccc4o3)cncc21 [S102, 8-(5-Chlorobenzofuran-2-yl)-4-((5,6-dihydro-[1,2,4]triazolo[4,3-a]pyrazin-7 (8H)-yl)sulfonyl)-3,4-dihydro-2H-pyrido[4,3-b][1,4]thiazine] | 3710 | 36
15 | Cc1cccc(S(=O)(=O)N2CCc3c(-c4ccc(C#N)cc4)cncc32)c1 [C8, 4-(1-(m-Tolylsulfonyl)-2,3-dihydro-1H-pyrrolo[2,3-c]pyridin-4-yl)benzonitrile] | 0.25 | 1.4
16 | N#Cc1ccc(-c2cncc3c2OCCN3C(=O)C2CN(c3ccc(F)cc3)C2)cc1 [O85, 4-(4-(1-(4-Fluorophenyl)azetidine-3-carbonyl)-3,4-dihydro-2H-pyrido[4,3-b][1,4]oxazin-8-yl)benzonitrile] | 64 | 4.6
17 | O=C(c1ccccc1F)N1CCc2c(-c3cc4ccccc4s3)cncc21 [C61, (4-(Benzo[b]thiophen-2-yl)-2,3-dihydro-1H-pyrrolo[2,3-c]pyridin-1-yl)(2-fluorophenyl)methanone] | 1350 | 216
18 | N#Cc1ccc(-c2cncc3c2CCN3S(=O)(=O)c2cccnc2)cc1 [C10, 4-(1-(Pyridin-3-ylsulfonyl)-2,3-dihydro-1H-pyrrolo[2,3-c]pyridin-4-yl)benzonitrile] | 1.7 | 1.3
19 | O=C(C1CN(Cc2cccc(F)c2)C1)N1CCOc2c(-c3cc4ccc(F)cc4[nH]3)cncc21 [O93, (8-(6-Fluoro-1H-indol-2-yl)-2,3-dihydro-4H-pyrido[4,3-b][1,4]oxazin-4-yl)(1-(3-fluorobenzyl)azetidin-3-yl)methanone] | 4170 | 90
20 | COc1cccc(CN2CC(C(=O)N3CCOc4c(-c5ccc(C#N)cc5)cncc43)C2)c1 [O82, 4-(4-(1-(3-Methoxybenzyl)azetidine-3-carbonyl)-3,4-dihydro-2H-pyrido[4,3-b][1,4]oxazin-8-yl)benzonitrile] | 69 | 1.4
21 | N#CC12CC(S(=O)(=O)N3CCSc4c(-c5cc6cc(Cl)ccc6o5)cncc43)(C1)C2 [S65, 3-((8-(5-Chlorobenzofuran-2-yl)-2,3-dihydro-4H-pyrido[4,3-b][1,4]thiazin-4-yl)sulfonyl)bicyclo[1.1.1]pentane-1-carbonitrile] | 783 | 5
22 | N#Cc1ccc(-c2cncc3c2OCCN3C(=O)C2CN(S(=O)(=O)c3cccc(C#N)c3)C2)cc1 [O74, 3-((3-(8-(4-Cyanophenyl)-3,4-dihydro-2H-pyrido[4,3-b][1,4]oxazine-4-carbonyl)azetidin-1-yl)sulfonyl)benzonitrile] | 99 | 1.3
23 | N#Cc1ccc(-c2cncc3c2CCN3C(=O)c2cccs2)cc1 [C46, 4-(1-(Thiophene-2-carbonyl)-2,3-dihydro-1H-pyrrolo[2,3-c]pyridin-4-yl)benzonitrile] | 274 | 5.4
24 | COc1ccc(S(=O)(=O)N2CCSc3c(-c4cc5cc(Cl)ccc5o4)cncc32)cn1 [S53, 8-(5-Chlorobenzofuran-2-yl)-4-((6-methoxypyridin-3-yl)sulfonyl)-3,4-dihydro-2H-pyrido[4,3-b][1,4]thiazine] | 72 | 0.9
25 | N#Cc1ccc(-c2cncc3c2CCN3C(=O)CCl)cc1 [C43, 4-(1-(2-Chloroacetyl)-2,3-dihydro-1H-pyrrolo[2,3-c]pyridin-4-yl)benzonitrile] | 897 | 99
26 | COc1cccc(C(=O)n2ccc3c(-c4ccc(C#N)cc4)cncc32)c1 [E24, 4-(1-(3-Methoxybenzoyl)-1H-pyrrolo[2,3-c]pyridin-4-yl)benzonitrile] | 82 | 1.9
27 | COc1ccc(S(=O)(=O)N2CCSc3c(-c4cccs4)cncc32)cc1 [S37, 4-((4-Methoxyphenyl)sulfonyl)-8-(thiophen-2-yl)-3,4-dihydro-2H-pyrido[4,3-b][1,4]thiazine] | 84 | 6
28 | COc1ccccc1C(=O)n1ccc2c(-c3ccc(C#N)cc3)cncc21 [E25, 4-(1-(2-Methoxybenzoyl)-1H-pyrrolo[2,3-c]pyridin-4-yl)benzonitrile] | 98 | 2.1
29 | N#Cc1cccc(-c2cncc3c2CCN3C(=O)c2ccccc2F)c1 [C55, 3-(1-(2-Fluorobenzoyl)-2,3-dihydro-1H-pyrrolo[2,3-c]pyridin-4-yl)benzonitrile] | 973 | 29
